We go through 14 compounds from US20250051301A1, “MUTANT IDH1 AND IDH2 INHIBITOR AND APPLICATION THEREOF” (Betta Pharmaceuticals Co., Ltd, priority 2022, published 2025).

Broadly, the IC50 is the concentration that inhibits the measured activity by half.

The target in experiment [1] is T1, IDH1^R132H (Homo sapiens, UniProt O75874, R132H). In words: 2-HG assay in cells (U87 cell line stably transfected with IDH1-R132H). Type of experiment: cell-based. Conditions: 72 hours, read-out: 2-HG in medium (IC50, nM) (IDH1^R132H). The method, then: The compounds were detected for the inhibition of 2-HG production in the U87 cell line stably transfected with IDH1-R132H and the culture supernatant of TF-1 cells stably transfected with IDH2-R140Q. • (1) The cultured cells were collected by centrifugation, then suspended in a cell culture solution, counted, and seeded in a 96-well cell culture plate at 160 μL of cell suspension/well (20000 cells/well for U87-IDH1-R132H; 10000 cells/well for TF-1-IDH2-R140Q). • (2) A 96-well plate dilution was taken, and the compounds to be tested were diluted in a gradient manner in DMSO and a cell culture solution; and then 40 μL of the gradient-diluted compounds to be tested were added to the 96-well plate on which cells have been plated. […] Finally, the plate was cultured in a 37° C. incubator containing 5% CO2. • (3) After the compounds were incubated with the cells for 72 hours, the cell culture plate was taken out and centrifuged at 1500 rpm for 5 minutes, and then 100 μL of the medium supernatant was aspirated for 2-HG detection. • (4) 2-HG detection: the cell supernatant was diluted with purified water, 30 μL of the diluted sample was taken into a 1.5 ml centrifuge tube, and 200 μL of the internal standard solution was added. The mixture was mixed uniformly by vortex and centrifuged at 3200 rpm at 4° C. for 15 minutes. 100 μL of the supernatant solution was diluted with water at a 1:1 ratio and then detected by LC-MS. Analyte Peak Area was used to represent the 2-HG levels. • (5) Inhibition rate calculation, formula: % Inhibition=(1−Analyte Peak Area_sample/Analyte Peak Area_max)*100%, wherein Analyte Peak Area_sample represents the Analyte Peak Area of the sample to which the compound was added; Analyte Peak Area_max represents the average value of Analyte Peak Area of positive control wells (representing the absence of the compound). The curve fitting was performed using Graphpad Prism software to obtain IC50 values, and the test results were as shown in table 2.

Experiment [2] concerns the target T1, IDH1^R132H. Nature of the experiment: Enzyme activity inhibition assay (fluorescence-based), IDH1 R132H. Type of experiment: biochemical. The method, then: The inhibitory ability of the compounds on the enzyme activities of IDH1^R132H and IDH2^R140Qwas detected and expressed as the half inhibitory concentration (IC50) value. AG-881 was used as a positive control compound. In this experiment, compounds were screened on enzymes IDH1^R132H and IDH2^R140Q using a fluorescence-based method (initial concentration: 10000 nM, 3-fold dilution, 10 concentrations, and single-well detection). • (1) Preparation of 1×assay buffer. • (2) Preparation of compound concentration gradient: the compounds to be tested were assayed at an initial concentration of 10000 nM, with 3-fold dilution and 10 concentrations, and diluted into 200-fold the final concentration in 100% DMSO solution in a 384-well plate. • (3) 250 nL of DMSO and 250 nL of diluted compounds were transferred to a reaction plate with Echo 550. • (4) IDH2^R140Q enzyme detection: 25 μL of an IDH2^R140Q enzyme solution was added, and the mixture was incubated for 60 minutes; then 25 μL of a substrate solution was added, and the mixture was incubated for 150 minutes; then 25 μL of a detection buffer was added, and the mixture was shaken for 1 minute and incubated for 60 minutes; and finally, Synergy 2, Ex544/Em590 cutoff 590 was used for reading. • (5) IDH1^R132H enzyme detection: 40 μL of a mixture solution of an IDH1^R132H enzyme at the 1.25-fold final concentration and NADPH was added, and the mixture was incubated for 60 minutes; then 10 μL of a substrate solution at the 5-fold final concentration was added, and the mixture was incubated for 90 minutes; then 25 μL of a detection buffer at the 3-fold final concentration was added, and the mixture was shaken for 1 minute. and finally, Synergy 2, Ex544/Em590 cutoff 590 was used for reading. • (8) Inhibition rate calculation, formula: % Inhibition=(RFU_sample−RFU_min)/(RFU_max−RFU_min)*100%, wherein RFU-sample represents the fluorescence intensity of a sample; RFU-min represents the average value of negative control wells and represents the fluorescence intensity with an enzyme; and RFU-max represents the average value of positive control wells and represents the fluorescence intensity without an enzyme. The curve fitting was performed using Graphpad Prism software to obtain IC50 values, and the test results were as shown in table 2.

T1 sequence (O75874 whole entry R132H): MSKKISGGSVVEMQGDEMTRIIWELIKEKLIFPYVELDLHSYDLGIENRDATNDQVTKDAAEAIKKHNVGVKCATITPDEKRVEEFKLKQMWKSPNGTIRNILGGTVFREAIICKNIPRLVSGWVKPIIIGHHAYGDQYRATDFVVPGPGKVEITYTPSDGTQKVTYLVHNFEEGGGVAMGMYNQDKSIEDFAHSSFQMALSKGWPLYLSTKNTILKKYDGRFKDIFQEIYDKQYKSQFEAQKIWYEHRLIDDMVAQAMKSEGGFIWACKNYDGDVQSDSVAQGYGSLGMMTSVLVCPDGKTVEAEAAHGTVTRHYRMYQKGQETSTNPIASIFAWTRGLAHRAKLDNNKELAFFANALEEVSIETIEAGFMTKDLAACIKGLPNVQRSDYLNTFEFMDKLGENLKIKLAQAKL

`C[C@@H](Nc1nc(N[C@H](C)C(F)(F)F)nc(-c2ccc(N)c(Cl)n2)n1)C(F)(F)F` [Example 2]: the values for the IC50 at IDH1^R132H [1] (numeric values) and on IDH1^R132H [2] (numeric values) were 17 nM and 22 nM, respectively.

Take `COc1cc(-c2nc(N[C@H](C)C(F)(F)F)nc(N[C@H](C)C(F)(F)F)n2)nc(Cl)c1N` [Example 3, 6-(5-amino-6-chloro-4-methoxypyridin-2-yl)-N^2,N^4-bis((R)-1,1,1-trifluoroprop-2-yl)-1,3,5-triazine-2,4-diamine]: the IC50 on IDH1^R132H [1] (class symbols) and on IDH1^R132H [2] (class symbols) was more than 1000 nM throughout.

In the case of `C[C@@H](Nc1nc(N[C@H](C)C(F)(F)F)nc(-c2nc(Cl)c(N)cc2F)n1)C(F)(F)F` [Example 4, 6-(5-amino-6-chloro-3-fluoropyridin-2-yl)-N^2,N^4-bis((R)-1,1,1-trifluoroprop-2-yl)-1,3,5-triazine-2,4-diamine], the IC50 on IDH1^R132H [1] (class symbols) and at IDH1^R132H [2] (class symbols) was more than 1000 nM in each case.

On to `C[C@@H](Nc1nc(N[C@H](C)C(F)(F)F)nc(-c2cc(Br)c(N)c(Cl)n2)n1)C(F)(F)F` [Example 6, 6-(5-amino-4-bromo-6-chloropyridin-2-yl)-N^2,N^4-bis((R)-1,1,1-trifluoropropyl-2-yl)-1,3,5-triazine-2,4-diamine], for which the figures for the IC50 at IDH1^R132H [1] (class symbols) and on IDH1^R132H [2] (class symbols) were 50 to 100 nM and 100 to 1000 nM, respectively.

Regarding `C=Cc1cc(-c2nc(N[C@H](C)C(F)(F)F)nc(N[C@H](C)C(F)(F)F)n2)nc(Cl)c1N` [Example 9, 6-(5-amino-6-chloro-4-vinylpyridin-2-yl)-N^2,N^4-bis((R)-1,1,1-trifluoropropyl-2-yl)-1,3,5-triazine-2,4-diamine], the IC50 on IDH1^R132H [1] (class symbols) and at IDH1^R132H [2] (class symbols) was more than 1000 nM in each case.

Regarding `C[C@@H](Nc1nc(N[C@H](C)C(F)(F)F)nc(-c2cc(F)c(O)c(Cl)n2)n1)C(F)(F)F` [Example 10, 6-(4,6-bis(((R)-1,1,1-trifluoroprop-2-yl)amine)-1,3,5-triazin-2-yl)-2-chloro-4-fluoropyridin-3-ol], the IC50 at IDH1^R132H [1] (class symbols) is 100 to 1000 nM; at IDH1^R132H [2] (class symbols), more than 1000 nM.

For the compound `C[C@@H](Nc1nc(N[C@H](C)C2CC2)nc(-c2cc(F)c(N)c(Cl)n2)n1)C1CC1` [Example 11, 6-(5-amino-6-chloro-4-fluoropyridin-2-yl)-N^2,N^4-bis((R)-1-cyclopropylethyl)-1,3,5-triazine-2,4-diamine], the IC50 on IDH1^R132H [1] (class symbols) was 100 to 1000 nM; at IDH1^R132H [2] (class symbols), more than 1000 nM.

With `Nc1c(F)cc(-c2nc(NC3CC(F)(F)C3)nc(NC3CC(F)(F)C3)n2)nc1Cl` [Example 12, 6-(5-amino-6-chloro-4-fluoropyridin-2-yl)-N^2,N^4-bis(3,3-difluorocyclobutyl)-1,3,5-triazine-2,4-diamine], the IC50 on IDH1^R132H [1] (class symbols) and on IDH1^R132H [2] (class symbols) was not above 50 nM throughout.

Regarding `C[C@@H](Nc1nc(N[C@H](C)C(F)(F)F)nc(-c2cc(F)c(N)c(C(F)(F)F)n2)n1)C(F)(F)F` [Example 13, 6-(5-amino-4-fluoro-6-(trifluoromethyl)pyridin-2-yl)-N^2,N^4-bis((R)-1,1,1-trifluoroprop-2-yl)-1,3,5-triazine-2,4-diamine], the IC50 on IDH1^R132H [1] (class symbols) is 100 to 1000 nM; at IDH1^R132H [2] (class symbols) it was more than 1000 nM.

Take `C[C@@H](Nc1nc(N[C@H](C)C(F)(F)F)nc(-c2cc(F)c(Cl)c(Cl)n2)n1)C(F)(F)F` [Example 17, 6-(5,6-dichloro-4-fluoropyridin-2-yl)-N^2,N^4-bis((R)-1,1,1-trifluoroprop-2-yl)-1,3,5-triazine-2,4-diamine]: the IC50 on IDH1^R132H [1] (class symbols) and at IDH1^R132H [2] (class symbols) was not above 50 nM in each case.

As to `CNc1c(Cl)cc(-c2nc(N[C@H](C)C(F)(F)F)nc(N[C@H](C)C(F)(F)F)n2)nc1Cl` [Example 20, 6-(4,6-dichloro-5-methylaminopyridin-2-yl)-N^2,N^4-bis((R)-1,1,1-trifluoroprop-2-yl)-1,3,5-triazine-2,4-diamine], at IDH1^R132H [2] (class symbols), the IC50 is more than 1000 nM.

`C[C@@H](Nc1nc(N[C@H](C)C(F)(F)F)nc(-c2cc(Cl)c(N(C)C)c(Cl)n2)n1)C(F)(F)F` [Example 21, 6-(4,6-dichloro-5-dimethylaminopyridin-2-yl)-N^2,N^4-bis((R)-1,1,1-trifluoroprop-2-yl)-1,3,5-triazine-2,4-diamine]: the IC50 at IDH1^R132H [2] (class symbols) lay in the range of 100 to 1000 nM.

On to `C[C@@H](Nc1nc(N[C@H](C)C(F)(F)F)nc(-c2cc(OC(F)F)c(N)c(Cl)n2)n1)C(F)(F)F` [Example 22, 6-(5-amino-6-chloro-4-(difluoromethoxy)pyridin-2-yl)-N^2,N^4-bis((R)-1,1,1-trifluoropropyl-2-yl)-1,3,5-triazine-2,4-diamine], for which the IC50 at IDH1^R132H [2] (class symbols) is more than 1000 nM.

For the compound `C[C@@H](Nc1nc(N[C@H](C)C(F)(F)F)nc(-c2cc(C(F)(F)F)c(N)c(Cl)n2)n1)C(F)(F)F` [Example 25, 6-(6-chloro-5-amino-4-(trifluoromethyl)pyridin-2-yl)-N^2,N^4-bis((R)-1,1,1-trifluoropropyl-2-yl)-1,3,5-triazine-2,4-diamine], the IC50 on IDH1^R132H [1] (class symbols) and at IDH1^R132H [2] (class symbols) was 100 to 1000 nM each time.
